Experimental data as given in patent publication US7858738B2, “Synthetic human peptides and pharmaceutical compositions comprising them for the treatment of systemic lupus erythematosus” (Yeda Research and Development Co., Ltd., priority 2001, dated 2010).

Legend:
MMP-9 [1] = test: MMP-9 activity in sera of 16/6Id immunized BALB/c mice; assay type: in vivo
Description: (§1) Induction and treatment of experimental SLE. In order to induce experimental SLE, BALB/c mice were immunized with 1-2 μg of the human mAb 16/6Id and boosted 3 weeks later. For the prevention of experimental SLE, mice were given hCDR1 or hCDR3 (mCDR1 or revmCDR1 as control peptide in Example 12) intravenously (i.v.) or s.c. concomitant with the immunization, and were injected weekly thereafter for 5 weeks. Treatment of an established disease started three and a half months following disease induction with the 16/6Id, when clinical manifestations were already observed. In Example 12, mice received 10 weekly injections (i.v. or s.c.) of mCDR1 or revmCDR1 at a dose of 100 μg/mouse. Prevention and treatment of SLE-like disease in (NZB×NZW)F1 mice with the hCDR1 or mCDR1 peptide. For prevention of SLE, mice at the age of 2 months, before disease manifestations are observed, were injected s.c. with hCDR1 (or mCDR1 in Example 12, 250 μg/mouse) once a week for 10 weeks. To treat an established disease, mice at the age of 5-7 months were injected with hCDR1 (in Example 12, mCDR1 s.c., 250 μg/mouse) once a week for 10 weeks. Proliferative Responses. PBL were isolated from heparinized venous blood by Ficoll-Hypaque (Pharmacia) density-gradient centrifugation. […] Results are expressed as the mean thymidine incorporation in counts per minute (CPM) of triplicate culture±SD, or as stimulation index (S.I.; the ratio of mean CPM at the optimal concentration of the human 16/6Id to the mean CPM in the presence of medium alone). […] TGF-β was determined by an ELISA. […] The substrate solution used was TMB color Reagent (Helix Diagnostics, West Sacramento, Calif.), and enzyme activity was evaluated by using 570- and 630-nm filters. […] Proteinuria was measured semiquantitatively by using Combistix kit (Ames Division, Bayer Diagnostics, Newbury, U.K.). White blood cells (WBC, for leukopenia) were counted after a 10-fold dilution of heparinized blood in distilled water containing 1% acetic acid (vol/vol). […]

MMP-9 [2] = test: MMP-9 immunostaining of kidney sections of 16/6Id immunized BALB/c mice; assay type: in vivo; details: prevention and treatment experiments; glomeruli and interstitium; FIG. 22
Description: as §1, with “peptide.” for “peptide. For prevention of SLE, mice at the age of 2 months, before disease manifestations are observed, were injected s.c. with hCDR1 (or mCDR1 in Example 12, 250 μg/mouse) once a week for 10 weeks. To treat an established disease, mice at the age of 5-7 months were injected with hCDR1 (in Example 12, mCDR1 s.c., 250 μg/mouse) once a week for 10 weeks. Proliferative Responses. PBL were isolated from heparinized venous blood by Ficoll-Hypaque (Pharmacia) density-gradient centrifugation.”, “U.K.).” for “U.K.). White blood cells (WBC, for leukopenia) were counted after a 10-fold dilution of heparinized blood in distilled water containing 1% acetic acid (vol/vol).”

MMP-3 [3] = test: MMP-3 levels in sera of (NZB×NZW)F1 mice (Western blot); assay type: in vivo
Description: as §1

T cell priming = details: administered in PBS; Waisman et al., 1997; cited from earlier work
MMP-9 [4] = test: MMP-9 activity in sera of (NZB×NZW)F1 mice (gel zymography); assay type: in vivo
Description: Induction and treatment of experimental SLE. In order to induce experimental SLE, BALB/c mice were immunized with 1-2 μg of the human mAb 16/6Id and boosted 3 weeks later. For the prevention of experimental SLE, mice were given hCDR1 or hCDR3 (mCDR1 or revmCDR1 as control peptide in Example 12) intravenously (i.v.) or s.c. concomitant with the immunization, and were injected weekly thereafter for 5 weeks. Treatment of an established disease started three and a half months following disease induction with the 16/6Id, when clinical manifestations were already observed. In Example 12, mice received 10 weekly injections (i.v. or s.c.) of mCDR1 or revmCDR1 at a dose of 100 μg/mouse. Prevention and treatment of SLE-like disease in (NZB×NZW)F1 mice with the hCDR1 or mCDR1 peptide. For prevention of SLE, mice at the age of 2 months, before disease manifestations are observed, were injected s.c. with hCDR1 (or mCDR1 in Example 12, 250 μg/mouse) once a week for 10 weeks. To treat an established disease, mice at the age of 5-7 months were injected with hCDR1 (in Example 12, mCDR1 s.c., 250 μg/mouse) once a week for 10 weeks. Proliferative Responses. PBL were isolated from heparinized venous blood by Ficoll-Hypaque (Pharmacia) density-gradient centrifugation. All assays were performed, in triplicate, in flat-bottomed microtiter plates (Falcon, Becton Dickinson, Oxmard, Calif., USA) in which 2×10^5 PBL were cultured in enriched RPMI-1640 as described (Dayan et al., 2000). The PBL were exposed to various concentrations (0.1-40 μg/well) of the human anti-DNA 16/6Id mAb with and without the addition of the various CDR-based peptides at a concentration of at least 10-fold excess over that of the 16/6Id. Phytohemagglutinin (PHA; 2 μg/well) was used as a control for culture conditions at each experiment. The cultures were incubated in 7.5% CO2 at 37° C. for 6 days. Eighteen hours before the cells were harvested, [^3H]-thymidine (0.5μ Ci of 5 Ci/mmol) (Nuclear Research Center, Negev, Israel) was added to all cultures. Results are expressed as the mean thymidine incorporation in counts per minute (CPM) of triplicate culture±SD, or as stimulation index (S.I.; the ratio of mean CPM at the optimal concentration of the human 16/6Id to the mean CPM in the presence of medium alone). […] TGF-β was determined by an ELISA. […] The substrate solution used was TMB color Reagent (Helix Diagnostics, West Sacramento, Calif.), and enzyme activity was evaluated by using 570- and 630-nm filters. […] Proteinuria was measured semiquantitatively by using Combistix kit (Ames Division, Bayer Diagnostics, Newbury, U.K.). White blood cells (WBC, for leukopenia) were counted after a 10-fold dilution of heparinized blood in distilled water containing 1% acetic acid (vol/vol). […]

[5] = tested on: SLE prone mice (NZB×NZW) F1 or MRL/lpr/lpr; details: Eilat et al., 2000 and 2001; cited from earlier work
MMP-3 [6] = test: MMP-3 levels in sera of 16/6Id immunized BALB/c mice (Western blot); assay type: in vivo; details: prevention and treatment protocols, 100 μg/mouse; FIG. 21A
Description: as §1, with “peptide.” for “peptide. For prevention of SLE, mice at the age of 2 months, before disease manifestations are observed, were injected s.c. with hCDR1 (or mCDR1 in Example 12, 250 μg/mouse) once a week for 10 weeks. To treat an established disease, mice at the age of 5-7 months were injected with hCDR1 (in Example 12, mCDR1 s.c., 250 μg/mouse) once a week for 10 weeks. Proliferative Responses. PBL were isolated from heparinized venous blood by Ficoll-Hypaque (Pharmacia) density-gradient centrifugation.”, “U.K.).” for “U.K.). White blood cells (WBC, for leukopenia) were counted after a 10-fold dilution of heparinized blood in distilled water containing 1% acetic acid (vol/vol).”

MMP-3 [7] = test: MMP-3 immunostaining of kidney sections of 16/6Id immunized BALB/c mice; assay type: in vivo; details: prevention and treatment experiments; glomeruli and interstitium; FIG. 22
Description: as §1, with “peptide.” for “peptide. For prevention of SLE, mice at the age of 2 months, before disease manifestations are observed, were injected s.c. with hCDR1 (or mCDR1 in Example 12, 250 μg/mouse) once a week for 10 weeks. To treat an established disease, mice at the age of 5-7 months were injected with hCDR1 (in Example 12, mCDR1 s.c., 250 μg/mouse) once a week for 10 weeks. Proliferative Responses. PBL were isolated from heparinized venous blood by Ficoll-Hypaque (Pharmacia) density-gradient centrifugation.”, “U.K.).” for “U.K.). White blood cells (WBC, for leukopenia) were counted after a 10-fold dilution of heparinized blood in distilled water containing 1% acetic acid (vol/vol).”

In the case of TGYYMQWVKQSPEKSLEWIG [mCDR1], the “activity of sera comparable to pure active MMP-9” value (MMP-9 [1]; MMP-9 activity assay system, preliminary, unimmunized 7 ng/ml, 16/6Id immunized 16 ng/ml) is reported as 8.5 ng/mL, the “MMP-9 activity in sera” value (MMP-9 [1]; prevention and treatment protocols, 100 μg/mouse, FIG. 21B) is reported as “could down regulate” and the “expression levels of MMP-9 in the kidneys” value (MMP-9 [2]) is reported as “down-regulated”. The “two lower bands of MMP-3 in the serum” value (MMP-3 [3]; prevention protocol: 250 μg/mouse s.c. weekly for 10 weeks from age 2 months, FIG. 20A) was “reduction”, the “levels of MMP-3 in the sera” value (MMP-3 [3]; treatment of sick mice, FIG. 20A right) was “specifically down-regulated” and the “T cell priming to the appropriate mCDR peptide or to the whole anti-DNA 16/6Id mAb” value (T cell priming) was “inhibiting T cell priming”. The “MMP-9 activity in the serum” value (MMP-9 [4]; prevention protocol: 250 μg/mouse s.c. weekly for 10 weeks from age 2 months, FIG. 20B) was “reduction”, the “activity of MMP-9 in the sera” value (MMP-9 [4]; treatment of sick mice, FIG. 20B right) was “specifically down-regulated” and the “prevention or treatment of SLE induced by human 16/6Id mAb or spontaneous” value [5] was “either prevent or treat an already established SLE”. For the same sequence, the “levels of MMP-3 in sera” value (MMP-3 [6]) was “could down regulate” and the “expression levels of MMP-3 in the kidneys” value (MMP-3 [7]) was “down-regulated”.
